Laboratory results: PMC11554305, “Functional identification of soluble uric acid as an endogenous inhibitor of CD38” (eLife, 2024)

Legend:
recombinant hCD38 = molecular target: T1, recombinant hCD38 (Homo sapiens, UniProt P28907); assay: Metabolic assay of NAD+ (degradation by recombinant hCD38); type: biochemical; settings: sUA 100, 200 or 500 μM; NAD+ 200 μM; hCD38 20 ng/mL; Figure 3F
T1 construct: the commercial recombinant hCD38 without a transmembrane region was partially used in this study; purchased Sino Biological 10818-H08H
T1 sequence (P28907 43-300 limits assumed): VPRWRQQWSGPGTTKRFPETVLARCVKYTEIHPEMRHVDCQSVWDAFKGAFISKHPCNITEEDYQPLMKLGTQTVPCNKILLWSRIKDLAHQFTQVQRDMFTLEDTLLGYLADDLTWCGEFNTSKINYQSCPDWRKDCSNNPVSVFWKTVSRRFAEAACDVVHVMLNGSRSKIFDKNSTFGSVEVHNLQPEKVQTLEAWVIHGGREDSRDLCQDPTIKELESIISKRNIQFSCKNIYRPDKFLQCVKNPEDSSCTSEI
Description: NAD^+ degradation by recombinant hCD38 was detected in hydrolase reaction buffer. At first, sUA (100, 200, and 500 μM) or other ligands at 500 μM in hydrolase reaction buffer (250 mM sucrose, 40 mM Tris) was freshly prepared, then the pH was immediately adjusted to 7.4 by HCl. Recombinant hCD38 was added into the buffer of experimental groups at 20 ng/mL, then the buffer was maintained at 37°C. The substrate NAD^+ was dissolved in hydrolase reaction buffer (pH 7.4) at 10 mM, and the pH was further adjusted to 7.4. The reaction was started with the addition of NAD^+ in the buffer for each group (final concentration is 200 μM), including control group (recombinant hCD38 free). All the buffers were incubated at 37°C with constant stirring. […]
As mentioned above, samples (cells, tissues, blood, or reaction buffer) were treated with ice-cold PCA, after extraction and centrifugation, the collected supernatant was appropriately diluted in 5% ice-cold PCA when applicable, and then was vortexed for 30 s and centrifuged at 15,000 rpm, 4°C for 5 min. […] All the samples after handling were immediately analyzed in this study without freezing and thawing.
The LC-MS/MS system consisted of a triple quadrupole LCMS-8050 (Shimadzu) and an LC-30A system (Shimadzu). […] NAD^+ and NMN were measured independently in this study, as their peaks were hardly separated within a short time.

[1] = Solubility and crystal precipitation in solution; type: physicochemical
Description: Guanosine was dissolved in DMSO and diluted in the reaction buffer for subsequent assays.
MSU crystals were prepared by the recrystallization of oversaturated sUA according to a previous report ([Martinon et al., 2006]). Improper preparation of sUA solution may introduce crystals to cause false-positive or false-negative results. […] In this study, the sUA solution was prepared according to an improved protocol ([Ma et al., 2020]). […] Then, sUA solution was immediately filtered by 0.2 μm filters and diluted to experimental concentration (up to 10 mg/dL, 595 μM) for cell experiments. […]

SMILES: O=c1[nH]c(=O)c2[nH]c(=O)[nH]c2[nH]1 [sUA, uric acid]
- NAD+ availability, degradation by recombinant hCD38 (recombinant hCD38): increased NAD^+ availability
- Crystal precipitation in stock solution ([1]; 5 mg/mL in NaOH without pH adjustment, 2-month storage at 4°C): Visible crystals were observed
- Crystal precipitation in stock solution ([1]; 50 mg/mL in NaOH without pH adjustment): Crystals were immediately precipitated after dissolution
- Crystal precipitation in high-concentration stock solutions ([1]; long-term storage at 4°C): promoted crystal precipitation
